The text below walks through data of patent US11787796B2, “Plasma Kallikrein inhibitors and uses thereof” (Takeda Pharmaceutical Company Limited, priority 2019, dated 2023).

Each structure is given as a SMILES string.

Sequence of human activated kallikrein enzyme (P03952 391-638): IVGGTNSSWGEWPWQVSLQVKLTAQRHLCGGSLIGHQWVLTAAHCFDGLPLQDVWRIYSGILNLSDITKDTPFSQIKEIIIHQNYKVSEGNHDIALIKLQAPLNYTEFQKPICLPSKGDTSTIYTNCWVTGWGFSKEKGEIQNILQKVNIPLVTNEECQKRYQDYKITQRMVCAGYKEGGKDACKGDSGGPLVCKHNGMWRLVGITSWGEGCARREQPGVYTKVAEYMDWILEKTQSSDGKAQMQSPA
Sequence of human activated kallikrein enzyme (P03952 20-390 partner): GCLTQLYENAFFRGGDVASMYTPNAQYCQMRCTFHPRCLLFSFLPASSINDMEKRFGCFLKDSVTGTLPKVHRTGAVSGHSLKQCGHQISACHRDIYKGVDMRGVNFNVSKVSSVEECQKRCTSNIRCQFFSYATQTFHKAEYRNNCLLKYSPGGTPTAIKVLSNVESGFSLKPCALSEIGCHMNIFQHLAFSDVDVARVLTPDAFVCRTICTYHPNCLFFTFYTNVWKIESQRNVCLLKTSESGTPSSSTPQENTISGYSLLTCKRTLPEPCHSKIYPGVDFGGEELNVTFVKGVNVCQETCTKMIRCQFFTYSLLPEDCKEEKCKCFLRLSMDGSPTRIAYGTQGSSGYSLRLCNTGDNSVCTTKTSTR

The assay has as its target human activated kallikrein enzyme (Homo sapiens (Human), UniProt P03952). The experiment in a line: Plasma kallikrein inhibition assay with fluorogenic peptide substrate, 500 pM activated kallikrein format. Type of assay: biochemical. The settings on record: 500 pM activated kallikrein; 300 uM Pro-Phe-Arg-7-amido-4-methylcoumarin substrate; 30 min preincubation, 10 min reaction at RT; read-out: Primary Dose Response Assay: Average EC50. As for the experimental part:
Example compounds were evaluated for inhibition of the human activated kallikrein enzyme in two formats of an assay employing a fluorogenic peptide substrate. In one assay format, the concentrations of reagents were as follows: 20 mM Tris pH 7.5, 1 mM EDTA, 150 mM sodium chloride, 0.1% PEG-400, 0.1% Triton X-100, […], 300 uM Pro-Phe-Arg-7-amido-4-methylcoumarin substrate. Prior to reaction initiation with substrate, enzyme and inhibitors were preincubated for 30 min at RT. After initiation with substrate, reactions were incubated for 10 min at RT and fluorescence emission at 460 nm from 380 nm excitation measured with a microplate reader. In another assay format, the concentrations of reagents were as follows: 20 mM Tris pH 7.5, 1 mM EDTA, 150 mM sodium chloride, 0.1% PEG-400, 0.1% Triton X-100, 5 pM activated kallikrein enzyme, 300 uM Pro-Phe-Arg-7-amido-4-methylcoumarin substrate. Prior to reaction initiation with substrate, enzyme and inhibitors were preincubated for 30 min at RT. After initiation with substrate, reactions were incubated for 18 h at RT and fluorescence emission at 460 nm from 380 nm excitation measured with a microplate reader.
Table II provides the results of the assay in the format with 500 pM activated kallikrein assay.
Table III provides comparative plasma kallikrein inhibition potency in the assay format with 500 pM activated kallikrein assay (described in detail in the preceding example).
As usually defined, the EC50 is the concentration at which the effect is half-maximal. As for `CC(NS(=O)(=O)c1cnn(Cc2cn3cc(C4CC4)ccc3n2)c1)c1cccc(Cl)c1` (stereo not drawn) [Example I-38, N-(1-(3-chlorophenyl)ethyl)-1-((6-cyclopropylimidazo[1,2-a]pyridin-2-yl)methyl)-1H-pyrazole-4-sulfonamide], the half-maximal effective concentration (EC50) was more than 7100 nM.
Take `Cc1cc(C(=N)N)cc(C)c1CNS(=O)(=O)c1cnn(Cc2cn3cc(C4CC4)ccc3n2)c1` [Example I-39, 4-(((1-((6-cyclopropylimidazo[1,2-a]pyridin-2-yl)methyl)-1H-pyrazole)-4-sulfonamido)methyl)-3,5-dimethylbenzimidamide]: the concentration for a half-maximal effect (EC50) lay within 10 to 100 nM.
Turning to `COc1ccc(-n2cnnn2)c(CNS(=O)(=O)c2cn(Cc3cn4cc(C5CC5)ccc4n3)nn2)c1F` [Example I-40, 1-((6-cyclopropylimidazo[1,2-a]pyridin-2-yl)methyl)-N-(2-fluoro-3-methoxy-6-(1H-tetrazol-1-yl)benzyl)-1H-1,2,3-triazole-4-sulfonamide], the concentration giving a half-maximal response (EC50) lay in the range of 10 to 100 nM.
The same measure for `Cc1cc(CN)cc(C)c1CNS(=O)(=O)c1cnn(Cc2cn3cc(C4CC4)ccc3n2)c1` [Example I-41, N-(4-(aminomethyl)-2,6-dimethylbenzyl)-1-((6-cyclopropylimidazo[1,2-a]pyridin-2-yl)methyl)-1H-pyrazole-4-sulfonamide]: 2000 to 7100 nM; for `O=S(=O)(NCc1ccc(Cl)cc1)c1cnn(Cc2cn3cc(C4CC4)ccc3n2)c1` [Example I-42, N-(4-chlorobenzyl)-1-((6-cyclopropylimidazo[1,2-a]pyridin-2-yl)methyl)-1H-pyrazole-4-sulfonamide]: more than 7100 nM; for `Cc1cc(C#N)cc(C)c1CNS(=O)(=O)c1cnn(Cc2cn3cc(C4CC4)ccc3n2)c1` [Example I-43, N-(4-cyano-2,6-dimethylbenzyl)-1-((6-cyclopropylimidazo[1,2-a]pyridin-2-yl)methyl)-1H-pyrazole-4-sulfonamide]: more than 7100 nM.
The same measure for `O=S(=O)(NCCc1cccc(Cl)c1)c1cnn(Cc2cn3cc(C4CC4)ccc3n2)c1` [Example I-44, N-(3-chlorophenethyl)-1-((6-cyclopropylimidazo[1,2-a]pyridin-2-yl)methyl)-1H-pyrazole-4-sulfonamide]: more than 7100 nM; for `COc1ccc(-n2cnnn2)c(CNS(=O)(=O)c2cnn(Cc3cn4cc(C5CC5)ccc4n3)c2)c1F` [Example I-45, 1-((6-cyclopropylimidazo[1,2-a]pyridin-2-yl)methyl)-N-(2-fluoro-3-methoxy-6-(1H-tetrazol-1-yl)benzyl)-1H-pyrazole-4-sulfonamide]: 1 to 10 nM.
Under `Cc1cc(N)nc(C)c1CNS(=O)(=O)c1cnn(Cc2cn3cc(C4CC4)ccc3n2)c1` [Example I-46, N-((6-amino-2,4-dimethylpyridin-3-yl)methyl)-1-((6-cyclopropylimidazo[1,2-a]pyridin-2-yl)methyl)-1H-pyrazole-4-sulfonamide] stands 100 to 2000 nM; under `O=S(=O)(NCc1cccc(Cl)c1)c1cnn(Cc2cn3cc(C4CC4)ccc3n2)c1` [Example I-47, N-(3-chlorobenzyl)-1-((6-cyclopropylimidazo[1,2-a]pyridin-2-yl)methyl)-1H-pyrazole-4-sulfonamide], more than 7100 nM.
As to `COc1ccc(S(=O)(=O)N2CCOCC2)c(CNC(=O)c2cn(Cc3cn4cc(C5CC5)ccc4n3)nn2)c1F` [Example I-48, 1-((6-cyclopropylimidazo[1,2-a]pyridin-2-yl)methyl)-N-(2-fluoro-3-methoxy-6-(morpholinosulfonyl)benzyl)-1H-1,2,3-triazole-4-carboxamide], the half-maximal effective concentration (EC50) lay within 1 to 10 nM.
On to `COc1ccc(-c2c[nH]nn2)c(CNC(=O)c2cn(Cc3cn4cc(C5CC5)ccc4n3)nn2)c1F` [Example I-49, 1-((6-cyclopropylimidazo[1,2-a]pyridin-2-yl)methyl)-N-(2-fluor-3-methoxy-6-(1H-1,2,3-triazol-4-yl)benzyl)-1H-1,2,3-triazole-4-carboxamide], for which the EC50 is 10 to 100 nM.
The same measure for `COc1ccc(-c2c[nH]nn2)c(CNC(=O)c2cn(Cc3cn4cc(C5CC5)ccc4n3)nn2)c1F` [Example I-50]: more than 7100 nM; for `CS(=O)(=O)c1ccccc1CNC(=O)c1cn(Cc2cn3cc(C4CC4)ccc3n2)nn1` [Example I-51, 1-((6-cyclopropylimidazo[1,2-a]pyridin-2-yl)methyl)-N-(2-(methylsulfonyl)benzyl)-1H-1,2,3-triazole-4-carboxamide]: 100 to 2000 nM; for `COc1ccc(-n2cnc(C(F)(F)F)n2)c(CNC(=O)c2cn(Cc3cn4cc(C5CC5)ccc4n3)nn2)c1F` [Example I-52, 1-((6-cyclopropylimidazo[1,2-a]pyridin-2-yl)methyl)-N-(2-fluoro-3-methoxy-6-(3-(trifluoromethyl)-1H-1,2,4-triazol-1-yl)benzyl)-1H-1,2,3-triazole-4-carboxamide]: not above 1 nM.
Under `COc1ccc(S(C)(=O)=O)c(CNC(=O)c2cn(Cc3cn4cc(C5CC5)ccc4n3)nn2)c1F` [Example I-53, 1-((6-cyclopropylimidazo[1,2-a]pyridin-2-yl)methyl)-N-(2-fluoro-3-methoxy-6-(methylsulfonyl)benzyl)-1H-1,2,3-triazole-4-carboxamide] stands 100 to 2000 nM; under `COc1ccc(-n2cnnn2)c(CNC(=O)c2ccn(Cc3cn4cc(C5CC5)ccc4n3)c2)c1F` [Example I-54, 1-((6-cyclopropylimidazo[1,2-a]pyridin-2-yl)methyl)-N-(2-fluoro-3-methoxy-6-(1H-tetrazol-1-yl)benzyl)-1H-pyrrole-3-carboxamide], not above 1 nM.
As to `COc1ccc(-n2cnnn2)c(CNC(=O)c2cn(Cc3cn4cc(C5CC5)ccc4n3)cn2)c1F` [Example I-55, 1-((6-cyclopropylimidazo[1,2-a]pyridin-2-yl)methyl)-N-(2-fluoro-3-methoxy-6-(1H-tetrazol-1-yl)benzyl)-1H-imidazole-4-carboxamide], the EC50 was not above 1 nM.
As to `O=C(NCc1cn(Cc2cn3cc(C4CC4)ccc3n2)nn1)c1ncc2c(F)c(Cl)ccn12` [Example I-56, 7-chloro-N-((1-((6-cyclopropylimidazo[1,2-a]pyridin-2-yl)methyl)-1H-1,2,3-triazol-4-yl)methyl)-8-fluoroimidazo[1,5-a]pyridine-3-carboxamide], the EC50 is more than 7100 nM.
The same measure for `COc1ccc(S(=O)(=O)N(C)C)c(CNC(=O)c2cn(Cc3cn4cc(C5CC5)ccc4n3)nn2)c1F` [Example I-57, 1-((6-cyclopropylimidazo[1,2-a]pyridin-2-yl)methyl)-N-(6-(N,N-dimethylsulfamoyl)-2-fluoro-3-methoxybenzyl)-1H-1,2,3-triazole-4-carboxamide]: 1 to 10 nM; for `COc1ccc([S+](C)[O-])c(CNC(=O)c2cn(Cc3cn4cc(C5CC5)ccc4n3)nn2)c1F` (stereo not drawn) [Example I-58, 1-((6-cyclopropylimidazo[1,2-a]pyridin-2-yl)methyl)-N-(2-fluoro-3-methoxy-6-(methylsulfinyl)benzyl)-1H-1,2,3-triazole-4-carboxamide]: 2000 to 7100 nM.
Regarding `COc1ccc(-n2cnnn2)c(CNC(=O)c2cncn2Cc2cn3cc(C4CC4)ccc3n2)c1F` [Example I-59, 1-((6-cyclopropylimidazo[1,2-a]pyridin-2-yl)methyl)-N-(2-fluoro-3-methoxy-6-(1H-tetrazol-1-yl)benzyl)-1H-imidazole-5-carboxamide], the concentration for a half-maximal effect (EC50) is more than 7100 nM.
Under `O=C(NCc1ccccc1)c1cn(Cc2cn3cc(C4CC4)ccc3n2)nn1` [Example I-60, N-benzyl-1-((6-cyclopropylimidazo[1,2-a]pyridin-2-yl)methyl)-1H-1,2,3-triazole-4-carboxamide] stands more than 7100 nM.
Under `COc1ccc(-n2cncn2)c(CNC(=O)c2cn(Cc3cn4cc(C5CC5)ccc4n3)nn2)c1F` [Example I-61, 1-((6-cyclopropylimidazo[1,2-a]pyridin-2-yl)methyl)-N-(2-fluoro-3-methoxy-6-(1H-1,2,4-triazol-1-yl)benzyl)-1H-1,2,3-triazole-4-carboxamide] stands not above 1 nM.
The same measure for `COc1ccc(-n2ccc(C(F)(F)F)n2)c(CNC(=O)c2cn(Cc3cn4cc(C5CC5)ccc4n3)nn2)c1F` [Example I-62, 1-((6-cyclopropylimidazo[1,2-a]pyridin-2-yl)methyl)-N-(2-fluoro-3-methoxy-6-(3-(trifluoromethyl)-1H-pyrazol-1-yl)benzyl)-1H-1,2,3-triazole-4-carboxamide]: 1 to 10 nM; for `COc1ccc(-c2cc3ccccn3n2)c(CNC(=O)c2cn(Cc3cn4cc(C5CC5)ccc4n3)nn2)c1F` [Example I-63, 1-((6-cyclopropylimidazo[1,2-a]pyridin-2-yl)methyl)-N-(2-fluoro-3-methoxy-6-(pyrazolo[1,5-a]pyridin-2-yl)benzyl)-1H-1,2,3-triazole-4-carboxamide]: 100 to 2000 nM.
For `COc1ccc(F)c(CNC(=O)c2cn(Cc3cn4cc(C5CC5)ccc4n3)nn2)c1F` [Example I-64, 1-((6-cyclopropylimidazo[1,2-a]pyridin-2-yl)methyl)-N-(2,6-difluoro-3-methoxybenzyl)-1H-1,2,3-triazole-4-carboxamide], the EC50 was 10 to 100 nM.
